# Reference: paper PMC9919861, “Homoleptic Complexes of Heterocyclic Curcuminoids with Mg(II) and Cu(II): First Conformationally Heteroleptic Case, Crystal Structures, and Biological Properties” (Molecules, 2023)
# Where two headings read alike, the source gives them in different places.
# Experiments:
# [1] = system: healthy monkey kidney cell line (COS-7); assay: Cytotoxicity towards healthy cell line; type: cell-based; conditions: COS7
# [2] = system: lipid peroxidation in rat brain homogenate; assay: Inhibition of lipid peroxidation (TBARS) in rat brain homogenate, FeSO4-induced; type: biochemical; conditions: for Inhibition (%) of lipid peroxidation / TBARS / IC50: mean ± SEM, n = 3; for IC50: rat brain homogenate, TBARS
# Procedure: Adult male Wistar rats (200–250 g) were provided by the Instituto de Fisiología Celular, Universidad Nacional Autónoma de México (UNAM). The procedures and care of animals were conducted in conformity with the Mexican Official Norm for Animal Care and Handling NOM-062-ZOO-1999. They were maintained at 23 ± 2 °C on a 12/12 h light-dark cycle with ad libitum access to food and water.
# Animal sacrifice was carried out avoiding unnecessary pain. The rats were sacrificed with CO2. The cerebral tissue (whole brain) was rapidly dissected and homogenized in phosphate-buffered saline (PBS) solution (0.2 g of KCl, 0.2 g of KH2PO4, 8 g of NaCl, and 2.16 g of NaHPO4.7H2O/L, pH adjusted to 7.4) as described elsewhere to produce a 1/10 (w/v) homogenate. The homogenate was centrifuged at 800 rcf (relative centrifugal field) for 10 min. The supernatant protein content was measured using Folin and Ciocalteu’s phenol reagent and adjusted with PBS at 2.666 mg of protein/mL.
# As an index of lipid peroxidation, TBARS levels were measured using rat brain homogenates according to the method described by Ng and co-workers, with some modifications. A supernatant (375 µL) was added with 50 µL of 20 µM EDTA and 25 µL of each sample concentration dissolved in DMSO (25 µL of DMSO for the control group) and incubated at 37 °C for 30 min. The lipid peroxidation was started adding 50 µL of freshly prepared 100 µM FeSO4 solution (final concentration 10 µM) and incubated at 37 °C for 1h. The TBARS measurements were obtained as described by Ohkawa and co-workers, with some modifications. To each tube 500 µL of TBA reagent (0.5% 2-thiobarbituric acid in 0.05 N NaOH and 30% trichloroacetic acid, in 1:1 ratio) was added and the final suspension was cooled on ice for 10 min, centrifuged at 13,400 rcf for 5 min and heated at 80 °C in a water bath for 30 min. After cooling at room temperature, the absorbance of 200 µL of supernatant was measured at λ = 540 nm in a Microplate Reader Synergy/HT BIOTEK Instrument, Inc., Winooski, VT, USA. The concentration of TBARS was calculated by interpolation on a standard curve of tetra-methoxypropane (TMP) as a precursor of MDA [38]. Results are expressed as n moles of TBARS per mg of protein. The inhibition ratio (IR [%]) was calculated using the formula IR = (C − E) × 100/C, where C is the control absorbance and E is the sample absorbance. Butylated hydroxytoluene (BHT) and α tocopherol were used as positive standards. All data are presented as mean ± standard error (SEM). The data were analyzed by one-way analysis of variance (ANOVA) followed by Dunnett’s test for comparison against a control. Values of p ≤ 0.05 (*) and p ≤ 0.01 (**) were considered statistically significant.
# [3] = system: HCT-15 (human colon adenocarcinoma); assay: Cytotoxicity, sulforhodamine B (SRB) microculture assay; type: cell-based; conditions: for inhibition at 25 µM: Homo sapiens, read-out: % of Inhibition (cytotoxic screening)
# Procedure: (§1) The cytotoxicity of all compounds was tested against six cancer cell lines: U251 (human glioblastoma cell line), PC-3 (human prostate adenocarcinoma), K562 (human chronic myelogenous leukemia), HCT-15 (human colon adenocarcinoma), MCF-7 (human mammary adenocarcinoma), and SKLU-1 (human lung adenocarcinoma). Cell lines were supplied by the U.S. National Cancer Institute (NCI). The cell lines were cultured in an RPMI-1640 medium supplemented with 10% fetal bovine serum, […] L-glutamine, 10,000 units/mL penicillin G sodium, 10,000 µg/mL streptomycin sulfate, 25 µg/mL amphotericin B (Invitrogen/Gibco™, Thermo Fisher Scientific, Waltham, MA, USA), and 1% non-essential amino acids (Gibco). They were maintained at 37 °C in a humidified atmosphere with 5% CO2. […] The human tumor cytotoxicity was determined using the protein-binding dye sulforhodamine B (SRB) in a microculture assay to measure cell growth, as described in the protocols established by the NCI [39, 40, 41].
# [4] = system: K562 (human chronic myelogenous leukemia); assay: as above; type: cell-based; conditions: for inhibition at 25 µM: Homo sapiens, read-out: % of Inhibition (cytotoxic screening)
# Procedure: as §1
# [5] = system: U251 (human glioblastoma cell line); assay: as above; type: cell-based; conditions: for inhibition at 25 µM: U-251, 25 μM, read-out: % of Inhibition (cytotoxic screening)
# Procedure: as §1
# [6] = system: MCF-7 (human mammary adenocarcinoma); assay: as above; type: cell-based; conditions: for inhibition at 25 µM: Homo sapiens, MCF7, 25 μM, read-out: % of Inhibition (cytotoxic screening)
# Procedure: as §1
# [7] = system: PC-3 (human prostate adenocarcinoma); assay: as above; type: cell-based; conditions: for inhibition at 25 µM: read-out: % of Inhibition (cytotoxic screening)
# Procedure: as §1
# [8] = system: SKLU-1 (human lung adenocarcinoma); assay: as above; type: cell-based; conditions: for inhibition at 25 µM: SK-LU-1, 25 μM, read-out: % of Inhibition (cytotoxic screening)
# Procedure: as §1
# [9] = Cytotoxicity towards healthy cell line; type: cell-based, monkey; conditions: monkey, COS-7 kidney cells; COS7; 25 μM; read-out: % of Inhibition (cytotoxic screening)
# [10] = concentration 1 (unit not given)
# [11] = concentration 10 (unit not given)
# [12] = concentration 100 (unit not given)
Structure (SMILES),% of Inhibition (cytotoxic screening) ([1]; 25 μM),"% of Inhibition (lipoperoxidation screening) [2, 10]","% of Inhibition (lipoperoxidation screening) [2, 11]","% of Inhibition (lipoperoxidation screening) [2, 12]",% of Inhibition (cytotoxic screening) ([4]; 25 μM),% of Inhibition (cytotoxic screening) ([5]; 25 μM),% of Inhibition (cytotoxic screening) ([6]; 25 μM),% of Inhibition (cytotoxic screening) ([7]; 25 μM),% of Inhibition (cytotoxic screening) ([8]; 25 μM),inhibition at 25 µM [9],Inhibition (%) of lipid peroxidation ([2]; 17.78 μM),TBARS ([2]; 17.78 μM),Inhibition (%) of lipid peroxidation ([2]; 31.62 μM),TBARS ([2]; 31.62 μM),Inhibition (%) of lipid peroxidation ([2]; 56.23 μM),TBARS ([2]; 56.23 μM),IC50 [2],inhibition at 25 µM ([3]; 25 μM),inhibition at 25 µM ([4]; 25 μM),inhibition at 25 µM ([5]; Homo sapiens),other results
Cn1cccc1/C=C/C(=O)C=C([O-])/C=C/c1cccn1C.Cn1cccc1/C=C/C(=O)C=C([O-])/C=C/c1cccn1C.[Cu+2] [N-methyl-pyrCurc-Cu],100%,−7.20%,38.48%,71.20%,74.67%,71.62%,100%,64.99%,100%,–,–,–,–,–,–,–,–,–,–,–,IC50 [3]: 12.9 ± 2.1 µM; % of Inhibition (cytotoxic screening) ([3]; 25 μM): 100%; IC50 [4]: 5.9 ± 1.5 µM; IC50 [5]: 10.6 ± 1 µM; IC50 [6]: 10.8 ± 1.7 µM; IC50 [8]: 10.3 ± 1 µM
"O=C(/C=C(O)/C=C/c1cccs1)/C=C/c1cccs1 [ThiopheneCurc, Thiophenecurcumin]",–,0.23%,25.43%,51.90%,–,–,–,–,–,0%,40.94 ± 0.36%,3.157 ± 0.139 nmol/mg prot.,61.81 ± 1.08%,2.042 ± 0.116 nmol/mg prot.,71.25 ± 1.79%,1.528 ± 0.035 nmol/mg prot.,22.02 ± 0.15 µM,0%,4.4%,0%,"Inhibition (%) of lipid peroxidation ([2]; 10 μM): 17.68 ± 0.97%; TBARS ([2]; 10 μM): 4.398 ± 0.177 nmol/mg prot.; Inhibition (%) of lipid peroxidation ([2]; 100 μM): 73.06 ± 3.06%; TBARS ([2]; 100 μM): 1.425 ± 0.094 nmol/mg prot.; Inhibition (%) of lipid peroxidation ([2]; 177.83 μM): 66.63 ± 3.83%; TBARS ([2]; 177.83 μM): 1.766 ± 0.119 nmol/mg prot.; inhibition at 25 µM [6]: 13.4%; inhibition at 25 µM ([7]; Homo sapiens, 25 μM): 14.8%; inhibition at 25 µM ([8]; Homo sapiens): 0%"
"COc1cc(/C=C/C(=O)CC(=O)/C=C/c2ccc(O)c(OC)c2)ccc1O [Curc, Curcumin]",–,–,–,–,–,–,–,–,–,71.6%,–,–,–,–,–,–,–,80%,80.1%,67.1%,"inhibition at 25 µM [6]: 82.4%; inhibition at 25 µM ([7]; Homo sapiens, 25 μM): 94.4%; inhibition at 25 µM ([8]; Homo sapiens): 94.5%"
O=C(C=C([O-])/C=C/c1ccco1)/C=C/c1ccco1.O=C(C=C([O-])/C=C/c1ccco1)/C=C/c1ccco1.[Cu+2] [FuranCurc-Cu],100%,0.83%,27.46%,88.94%,90.1%,100%,92.8%,100%,95.0%,–,–,–,–,–,–,–,–,–,–,–,% of Inhibition (cytotoxic screening) ([3]; 25 μM): 72.4%; IC50 [5]: 4 ± 0.3 µM; IC50 [7]: 3 ± 0.1 µM; IC50 [8]: 6.5 ± 0.2 µM
"O=C(/C=C(O)/C=C/c1ccco1)/C=C/c1ccco1 [FuranCurc, Furancurcumin]",–,−6.24%,1.59%,93.46%,–,–,–,–,–,46.2%,13.14 ± 5.84%,8.634 ± 0.462 nmol/mg prot.,48.97 ± 13.11%,5.091 ± 1.356 nmol/mg prot.,81.06 ± 1.43%,1.891±0.178 nmol/mg prot.,33.9 ± 4.65 µM,0%,6.4%,0%,"Inhibition (%) of lipid peroxidation ([2]; 13.34 μM): 5.6 ± 5.31%; TBARS ([2]; 13.34 μM): 9.385 ± 0.416 nmol/mg prot.; Inhibition (%) of lipid peroxidation ([2]; 23.71 μM): 25.93 ± 9.98%; TBARS ([2]; 23.71 μM): 7.356 ± 0.928 nmol/mg prot.; Inhibition (%) of lipid peroxidation ([2]; 42.17 μM): 64.24 ± 10.44%; TBARS ([2]; 42.17 μM): 3.590±1.114 nmol/mg prot.; Inhibition (%) of lipid peroxidation ([2]; 74.13 μM): 88.25 ± 1.57%; TBARS ([2]; 74.13 μM): 1.167±0.148 nmol/mg prot.; IC50 ([5]; Homo sapiens, U-251): 11.7 ± 2.9 µM; inhibition at 25 µM [6]: 0%; IC50 ([7]; Homo sapiens): 35.9 ± 3.9 µM; inhibition at 25 µM ([7]; Homo sapiens, 25 μM): 10.8%; IC50 ([8]; Homo sapiens, SK-LU-1): 15.5 ± 2 µM; inhibition at 25 µM ([8]; Homo sapiens): 0%"
O=C(C=C([O-])/C=C/c1cccs1)/C=C/c1cccs1.O=C(C=C([O-])/C=C/c1cccs1)/C=C/c1cccs1.[Cu+2] [ThiopheneCurc-Cu],0%,5.67%,51.00%,53.96%,84.4%,58.2%,57.9%,63.6%,91.0%,–,57.25 ± 1.19%,2.280 ± 0.052 nmol/mg prot.,55.9 ± 1.51%,2.351 ± 0.046 nmol/mg prot.,58.14 ± 2.66%,2.225 ± 0.055 nmol/mg prot.,10.3 ± 0.59 µM,–,–,–,Inhibition (%) of lipid peroxidation ([2]; 3.16 μM): 12.51 ± 3.57%; TBARS ([2]; 3.16 μM): 4.665 ± 0.144 nmol/mg prot.; Inhibition (%) of lipid peroxidation ([2]; 5.62 μM): 31.7 ± 2.33%; TBARS ([2]; 5.62 μM): 3.651 ± 0.200 nmol/mg prot.; Inhibition (%) of lipid peroxidation ([2]; 10 μM): 49.46 ± 1.96%; TBARS ([2]; 10 μM): 2.693 ± 0.029 nmol/mg prot.; IC50 [4]: 38.6 ± 8.1 µM
Cn1cccc1/C=C/C(=O)C=C([O-])/C=C/c1cccn1C.Cn1cccc1/C=C/C(=O)C=C([O-])/C=C/c1cccn1C.[Mg+2] [N-methyl-pyrCurc-Mg],–,−4.22%,12.24%,69.70%,–,–,–,–,–,–,–,–,–,–,–,–,–,–,–,–,% of Inhibition (cytotoxic screening) ([1]; 12.5 μM): 23.4%; % of Inhibition (cytotoxic screening) ([3]; 12.5 μM): 15.8%; % of Inhibition (cytotoxic screening) ([4]; 12.5 μM): 28.8%; % of Inhibition (cytotoxic screening) ([5]; 12.5 μM): 19.5%; % of Inhibition (cytotoxic screening) ([6]; 12.5 μM): 35.7%; % of Inhibition (cytotoxic screening) ([7]; 12.5 μM): 1.4%; % of Inhibition (cytotoxic screening) ([8]; 12.5 μM): 18.1%
